The record followed here is paper PMC10354048 (Communications Chemistry, 2023).

Common to all, as to experiment: microbe, parasite or virus in culture
Assay [1] has as its system E. faecalis CW133003. The following applies: broth microdilution per CSLI guidelines, Brain Heart Infusion broth, 5 × 10^5 CFU/mL, 37 °C, 20 h, range 64–0.125 µg/mL, average of three repeat assays. The method, then: (§1) Minimum inhibitory concentrations, determined by broth microdilution, are expressed as an average of three repeat assays. […] [a] MIC values expressed in μg/mL, [b] AC: American Type Culture Collection strain, [c] CW: CANWARD collection clinical isolate strain.33.
(§2) Minimum Inhibitory Concentrations (MIC) were determined for each of the bacteriocins and controls using a broth microdilution method, as per CSLI guidelines for microbial susceptibility testing. The peptides were dissolved in sterile deionized water to prepare the working stocks, with concentrations determined by UV absorbance at 280 nm[56]. Overnight cultures from the strains of interest were incubated with shaking overnight at 37 °C. Cation-adjusted Mueller Hinton Broth 2 (MHB 2) was used for the S. aureus, and S. epidermidis strains and Brain Heart Infusion (BHI) broth was utilized for the E. faecalis and E. faecium strains. The cultures were prepared and diluted to the turbidity of a 0.5 McFarland standard using MHB or BHI fresh media. Increasing concentrations of the leaderless bacteriocins were added to a 96-well polypropylene plate. The range tested for each bacteriocin was 64–0.125 µg/mL. The bacterial culture was further diluted and mixed in a 1:1 ratio with the bacteriocin solution to yield a final concentration in the wells of 5 × 10^5 CFU/mL. […] A 1:1000 dilution of the growth control was prepared in the respective media and plated onto agar (100 μL) to ensure the correct inoculum concentration (5 × 10^5 CFU/mL indicated by ≈ 50 bacterial colonies). The 96-well and agar plates were incubated at 37 °C, and growth was assessed by the formation of a pellet observable with the naked eye after 20 h. […] Each assay was performed in triplicate.
(§3) Materials and instruments […]
(§4) Minimum Inhibitory Concentration (MIC)
(§5) assays were conducted in 96-Well Clear polypropylene corner notch microplates (Corning, #11313595). For the […]
(In general: Dilution methods test growth across graded concentrations, often in twofold steps.)

For assay [2], the system named is S. aureus AC29213. The following applies: for Minimum inhibitory concentration S. aureus AC29213: broth microdilution per CSLI guidelines, cation-adjusted Mueller Hinton Broth 2, 5 × 10^5 CFU/mL, 37 °C, 20 h, range 64–0.125 µg/mL, average of three repeat assays. The method, then:
as §1, §2, §3, §4, §5

In assay [3] the test system is S. aureus CW113379. The following applies: for Minimum inhibitory concentration S. aureus CW113379: broth microdilution per CSLI guidelines, cation-adjusted Mueller Hinton Broth 2, 5 × 10^5 CFU/mL, 37 °C, 20 h, range 64–0.125 µg/mL, average of three repeat assays. The method, then:
as §1, §2, §3, §4, §5

Assay [4] concerns S. aureus CW114125. The following applies: for Minimum inhibitory concentration S. aureus CW114125: broth microdilution per CSLI guidelines, cation-adjusted Mueller Hinton Broth 2, 5 × 10^5 CFU/mL, 37 °C, 20 h, range 64–0.125 µg/mL, average of three repeat assays. The method, then: as §1, §2, §3, §4, §5
Assay [5] has as its system S. aureus CW115852. The following applies: for Minimum inhibitory concentration S. aureus CW115852: broth microdilution per CSLI guidelines, cation-adjusted Mueller Hinton Broth 2, 5 × 10^5 CFU/mL, 37 °C, 20 h, range 64–0.125 µg/mL, average of three repeat assays. The method, then: as §1, §2, §3, §4, §5
For assay [6], the system named is S. epidermidis CW131612. The following applies: for Minimum inhibitory concentration S. epidermidis CW131612: broth microdilution per CSLI guidelines, cation-adjusted Mueller Hinton Broth 2, 5 × 10^5 CFU/mL, 37 °C, 20 h, range 64–0.125 µg/mL, average of three repeat assays. The method, then:
as §1, §2, §3, §4, §5

Assay [7] concerns E. faecalis CW133346. The following applies: broth microdilution per CSLI guidelines, Brain Heart Infusion broth, 5 × 10^5 CFU/mL, 37 °C, 20 h, range 64–0.125 µg/mL, triplicate. The method, then: as §2, §3
(§6) Minimum Inhibitory Concentration (MIC) assays were conducted in 96-Well Clear polypropylene corner notch microplates (Corning, #11313595). For the assay media, cation adjusted Mueller Hinton Broth 2 (Sigma Aldrich, #90922) was used for the S. aureus, and S. epidermidis strains and Brain Heart Infusion broth (BD, #221812) was used for the E. faecalis and E. faecium […]
(§7) used, as well as melittin prepared by automated SPPS. Experimental bacterial strains used were procured from the American Type Culture collection (S. aureus 29213) and the Canadian Antimicrobial Resistance Alliance

The test system of assay [8] is E. faecium CW130826. The following applies: broth microdilution per CSLI guidelines, Brain Heart Infusion broth, 5 × 10^5 CFU/mL, 37 °C, 20 h, range 64–0.125 µg/mL, triplicate. The method, then: as §2, §3, §6, §7
For assay [9], the system named is E. faecium CW131126. The following applies: broth microdilution per CSLI guidelines, Brain Heart Infusion broth, 5 × 10^5 CFU/mL, 37 °C, 20 h, range 64–0.125 µg/mL, triplicate. The method, then: as §2, §3, §6, §7
For assay [10], the system named is S. epidermidis CW130500. The following applies: for Minimum inhibitory concentration S. epidermidis CW130500: broth microdilution per CSLI guidelines, cation-adjusted Mueller Hinton Broth 2, 5 × 10^5 CFU/mL, 37 °C, 20 h, range 64–0.125 µg/mL, triplicate. The method, then:
as §2, §3, §6, §7

In brackets after ≈: the same amount, converted by molar mass. Where no end group is shown, it is not given here.

Regarding `CC[C@H](C)[C@H](NC(=O)CN)C(=O)NCC(=O)N[C@@H](C)C(=O)N[C@H](C(=O)N[C@@H](CC(C)C)C(=O)N[C@@H](CCCCN)C(=O)N[C@H](C(=O)N[C@@H](CC(C)C)C(=O)N[C@H](C(=O)N[C@H](C(=O)NCC(=O)N[C@@H](CC(C)C)C(=O)N1CCC[C@H]1C(=O)N[C@@H](C)C(=O)N[C@@H](CC(C)C)C(=O)N[C@H](C(=O)N[C@@H](CO)C(=O)N[C@@H](Cc1c[nH]c2ccccc12)C(=O)N[C@H](C(=O)N[C@@H](CCCCN)C(=O)N[C@@H](CCCNC(=N)N)C(=O)N[C@@H](CCCCN)C(=O)N[C@@H](CCCNC(=N)N)C(=O)N[C@@H](CCC(N)=O)C(=O)N[C@@H](CCC(N)=O)C(N)=O)[C@@H](C)CC)[C@@H](C)CC)[C@@H](C)O)[C@@H](C)O)C(C)C)C(C)C` [Melittin, melittin, reference compound], the “Minimum inhibitory concentration E. faecalis CW133003” value in assay [1] amounted to 16 µg/mL (≈ 5.62 µM). Also, the “Minimum inhibitory concentration S. aureus AC29213” value in assay [2] is 8 µg/mL (≈ 2.81 µM). Moreover, the “Minimum inhibitory concentration S. aureus CW113379” value in [3] came out at 4 µg/mL (≈ 1.41 µM). Also, the “Minimum inhibitory concentration S. aureus CW114125” value in [4] was 8 µg/mL (≈ 2.81 µM). Besides, the “Minimum inhibitory concentration S. aureus CW115852” value in assay [5] came to 4 µg/mL (≈ 1.41 µM). Besides, the “Minimum inhibitory concentration S. epidermidis CW131612” value in [6] came out at 4 µg/mL (≈ 1.41 µM). In addition, the “Minimum inhibitory concentration E. faecalis CW133346” value in assay [7] is 16 µg/mL (≈ 5.62 µM). In [8], the “Minimum inhibitory concentration E. faecium CW130826” value worked out at 8 µg/mL (≈ 2.81 µM). Further, the “Minimum inhibitory concentration E. faecium CW131126” value in assay [9] worked out at 8 µg/mL (≈ 2.81 µM). Also, the “Minimum inhibitory concentration S. epidermidis CW130500” value in assay [10] was determined as 8 µg/mL (≈ 2.81 µM).
As for “MSWLNFLKYIAKYGKKAVSAALKYKGKVLEWLNVGPTLEWVWQKLKKIAGL-NH2 [L-W22L, L-aureocin A53 W22L (Met^1-Leu^51)]”, in [1], the “Minimum inhibitory concentration E. faecalis CW133003” value was 16 µg/mL. Also, the “Minimum inhibitory concentration S. aureus AC29213” value in assay [2] stood at 2 µg/mL. The “Minimum inhibitory concentration S. aureus CW113379” value in assay [3] was 16 µg/mL. The “Minimum inhibitory concentration S. aureus CW114125” value in [4] amounted to 8 µg/mL. Besides, the “Minimum inhibitory concentration S. aureus CW115852” value in assay [5] was determined as 16 µg/mL. In assay [6], the “Minimum inhibitory concentration S. epidermidis CW131612” value is 4 µg/mL. Besides, in assay [7], the “Minimum inhibitory concentration E. faecalis CW133346” value turned out to be 4 µg/mL. For the same compound, in assay [8], the “Minimum inhibitory concentration E. faecium CW130826” value worked out at 2 µg/mL. Further, the “Minimum inhibitory concentration E. faecium CW131126” value in [9] came out at 4 µg/mL. In addition, the “Minimum inhibitory concentration S. epidermidis CW130500” value in assay [10] worked out at 8 µg/mL.
Turning to `CC1(C)S[C@@H]2[C@H](NC(=O)[C@H](N)c3ccccc3)C(=O)N2[C@H]1C(=O)O` [Ampicillin, ampicillin, reference compound], the MIC in assay [2] (Staphylococcus aureus, AC29213, 20 h, read-out: Minimum inhibitory concentration S. aureus AC29213) was 2 µg/mL (≈ 5.72 µM); in assay [3] (Staphylococcus aureus, CW113379, 20 h, read-out: Minimum inhibitory concentration S. aureus CW113379), 32 µg/mL (≈ 91.6 µM); in assay [4] (Staphylococcus aureus, CW114125, 20 h, read-out: Minimum inhibitory concentration S. aureus CW114125), 16 µg/mL (≈ 45.8 µM); in assay [5] (Staphylococcus aureus, CW115852, 20 h, read-out: Minimum inhibitory concentration S. aureus CW115852) it was 4 µg/mL (≈ 11.4 µM); in [6] (Staphylococcus epidermidis, CW131612, 20 h, read-out: Minimum inhibitory concentration S. epidermidis CW131612), greater than 64 µg/mL; in assay [10] (Staphylococcus epidermidis, CW130500, 20 h, read-out: Minimum inhibitory concentration S. epidermidis CW130500), 8 µg/mL (≈ 22.9 µM).
Take “MAGFLKVVQLLAKYGSKAVQWALANKGKILDWLNAGQAIDWVVSKIKQILGIK-NH2 [L-W23L, L-lacticin Q W23L (Met^1-Lys^53)]”: in [1], the “Minimum inhibitory concentration E. faecalis CW133003” value was determined as 4 µg/mL. Moreover, in assay [2], the “Minimum inhibitory concentration S. aureus AC29213” value came out at 32 µg/mL. Also, in [3], the “Minimum inhibitory concentration S. aureus CW113379” value was determined as 64 µg/mL. The “Minimum inhibitory concentration S. aureus CW114125” value in [4] is greater than 64 µg/mL. Also, the “Minimum inhibitory concentration S. aureus CW115852” value in [5] came to 64 µg/mL. In addition, the “Minimum inhibitory concentration S. epidermidis CW131612” value in assay [6] came out at 32 µg/mL. In addition, the “Minimum inhibitory concentration E. faecalis CW133346” value in assay [7] turned out to be 8 µg/mL. Also, the “Minimum inhibitory concentration E. faecium CW131126” value in assay [9] amounted to 4 µg/mL.
On to “MAGFLKVVQLLAKYGSKAVQWAWANKGKILDWLNAGQAIDLVVSKIKQILGIK-NH2 (C-terminus assumed) [L-W41L, L-lacticin Q W41L (Met^1-Lys^53)]”, for which the “Minimum inhibitory concentration E. faecalis CW133003” value in assay [1] came to 64 µg/mL. Also, in assay [2], the “Minimum inhibitory concentration S. aureus AC29213” value was greater than 64 µg/mL. Also, the “Minimum inhibitory concentration S. aureus CW113379” value in [3] is greater than 64 µg/mL. Also, in assay [4], the “Minimum inhibitory concentration S. aureus CW114125” value was greater than 64 µg/mL. In [5], the “Minimum inhibitory concentration S. aureus CW115852” value was greater than 64 µg/mL. Further, the “Minimum inhibitory concentration S. epidermidis CW131612” value in [6] was greater than 64 µg/mL. For the same compound, in [9], the “Minimum inhibitory concentration E. faecium CW131126” value was found to be 8 µg/mL.
